Structures are written as SMILES.

One assay concerns the target T1, Chymase (Homo sapiens, UniProt P23946).
T1 sequence (P23946 whole entry): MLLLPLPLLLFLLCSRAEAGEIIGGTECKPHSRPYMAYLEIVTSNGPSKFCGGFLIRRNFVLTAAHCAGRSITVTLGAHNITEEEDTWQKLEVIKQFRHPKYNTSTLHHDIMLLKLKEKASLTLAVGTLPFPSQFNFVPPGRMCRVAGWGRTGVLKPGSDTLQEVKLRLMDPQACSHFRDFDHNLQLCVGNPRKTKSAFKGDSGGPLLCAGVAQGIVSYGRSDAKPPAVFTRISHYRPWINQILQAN
The assay is described as follows: Inhibition of human recombinant chymase.

The next assay concerns the target T2, Cathepsin G (Homo sapiens, UniProt P08311).
T2 sequence (P08311 whole entry): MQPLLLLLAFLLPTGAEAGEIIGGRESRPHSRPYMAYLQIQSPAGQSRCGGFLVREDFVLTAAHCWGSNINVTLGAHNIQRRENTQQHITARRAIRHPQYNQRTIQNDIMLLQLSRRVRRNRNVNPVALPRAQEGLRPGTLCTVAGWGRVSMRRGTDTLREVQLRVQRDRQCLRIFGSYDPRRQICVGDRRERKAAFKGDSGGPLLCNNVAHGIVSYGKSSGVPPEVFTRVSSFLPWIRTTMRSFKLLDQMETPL
Briefly: Inhibition of human neutrophil cathepsin G.

Assay [1] can be described thus: Inhibition of bovine pancreatic alpha chymotrypsin. Details: species or system Bos taurus.
Assay [2] is described as follows: Inhibition of bovine pancreatic trypsin. Details: species or system Bos taurus.
A further assay deals with T3, Neutrophil elastase (Homo sapiens, UniProt P08246).
T3 sequence (P08246 whole entry): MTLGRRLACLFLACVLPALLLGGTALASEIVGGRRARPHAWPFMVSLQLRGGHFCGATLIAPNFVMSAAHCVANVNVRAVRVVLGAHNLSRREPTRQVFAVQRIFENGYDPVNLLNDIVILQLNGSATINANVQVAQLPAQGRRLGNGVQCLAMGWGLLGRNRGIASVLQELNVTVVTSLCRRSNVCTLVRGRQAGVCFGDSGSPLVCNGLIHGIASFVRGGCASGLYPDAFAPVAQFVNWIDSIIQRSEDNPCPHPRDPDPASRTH
Briefly: Inhibition of human neutrophil elastase.

The IC50 is the concentration needed to halve the response being measured. Take `O=C1CN(S(=O)(=O)c2ccc(Cl)cc2)C(=O)C(Cc2ccc3ccccc3c2)CN1` (racemic): the IC50 at Chymase is over 10 µM. On to `O=C1CN(S(=O)(=O)c2ccc(Cl)cc2)C(=O)C(Cc2cccnc2)CN1` (racemic), for which the IC50 at Chymase is over 10 µM. Still for that read-out and setting: the value for `O=C1CN(S(=O)(=O)c2ccc(Cl)cc2)C(=O)C(Cc2ccncc2)CN1` (racemic) was over 10 µM. For the compound `COc1ccc(Cl)cc1CC1CNC(=O)CN(S(=O)(=O)c2ccc(Cl)cc2)C1=O` (racemic), the 50% inhibitory concentration (IC50) on Cathepsin G was 2.9 µM; in assay [1], 0.3 µM; in assay [2], over 10 µM; against Neutrophil elastase, over 10 µM.

Consider `O=C1CN(S(=O)(=O)c2ccc(Cl)cc2)C(=O)C(CC2CCCCC2)CN1` (racemic), for which the half-inhibitory concentration (IC50) on Chymase is over 10 µM. Turning to `CC(C)C[C@H](NC(=O)[C@@H](NC(=O)N[C@@H](Cc1ccccc1)C(=O)O)C1CCN=C(N)N1)C(=O)N[C@H](C=O)Cc1ccccc1` (some centres undefined) [CHYMOSTATIN], the half-inhibitory concentration (IC50) at Chymase was found to be 0.043 µM.

The record behind these values is ChEMBL document CHEMBL1139926, “Identification of 6-substituted 4-arylsulfonyl-1,4-diazepane-2,5-diones as a novel scaffold for human chymase inhibitors” (Bioorg Med Chem Lett, 2007).
